Test results reported in US11130771B2, “Prodrugs of Naltrexone, Nalmefene and derivatives thereof” (TAIWANJ PHARMACEUTICALS CO., LTD., priority 2018, dated 2021).

Test: Pharmacokinetic Measurement in BALB/c Mice (oral gavage, plasma LC-MS/MS)
Conditions: parent compound after oral administration, compared with prodrug and Naltrexone from prodrug; FIGS. 1 and 2
Protocol: This study tested the bioavailability of different test compounds in rats, by oral gavage administration, at prescribed dose levels.
Male BALB/c mice, body weight approximately 1925 g, were purchased from BioLASCO Taiwan Co., Ltd. and kept in the Animal Laboratory of Industrial
LC-MS/MS: ABSCIEX 4000 QTRAP LC-MS/MS System; Polarity: positive mode; Column: XBridge RP18, 3.5 μm, 4.6×20 mm; Flow rate: 0.7 mL/min; Injection volume: 10 μL; Temperature: Room temperature; Running time: 5 min.
Blood aliquots (40 μL) were collected from jugular vein catheterized BALB/c in tubes coated with K2-EDTA, mixed gently, then kept on ice and centrifuged at 7000×g for 15 minutes at 4° C. The plasma was then harvested and kept frozen at −80° C. until further processing.
The plasma samples were processed using acetonitrile precipitation and analyzed by LC-MS/MS. A plasma calibration curve was generated. […]
The spiked plasma samples were processed together with the unknown plasma samples using the same procedure. The processed plasma samples were stored at −80° C. until the LC-MS/MS analysis, at which time peak areas were recorded, and the concentrations of the test compound in the unknown plasma samples were determined using the respective calibration curve. The reportable linear range of the assay was determined, along with the lower limit of quantitation (LOQ). […]

O=C1CC[C@@]2(O)[C@H]3Cc4ccc(O)c5c4[C@@]2(CCN3CC2CC2)[C@H]1O5 [Naltrexone]
concentration in blood with respect to time: raised rapidly and reached the highest level
